Test system: tau protein
Assay: Tau protein in vitro degradation assay (Western blot, Tau-13 antibody)
Assay type: cell-based, human
Details: SK-N-SH cells, 72 hours of incubation; for Degradation activity (tau protein remaining; highest amount of degradation observed at any dosage) / Degradation activity* (highest amount of degradation observed at any dosage; tau protein remaining): tested at 300 nM, 100 nM, 33 nM and 11 nM, Western blot, Tau-13 antibody; for Activity* (highest amount of degradation observed at any dosage, as tau protein remaining): tested at 1000 nM, 300 nM and 100 nM
Method in brief: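 SK-N-SH cells, seeded ≥18 h beforehand, were incubated 72 h with tau PROTACs at 1000, 300 and 100 nM or at 300, 100, 33 and 11 nM. Lysates in protease-inhibitor buffer were resolved by SDS-PAGE; tau quantified by Western blot with Tau-13 antibody recognising all human tau forms.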

Structure (SMILES) | Degradation activity* (highest amount of degradation observed at any dosage; tau protein remaining) | also measured
Cn1c2ccncc2c2ccc(-c3ccc(O[C@H]4C[C@H](Oc5ccc(C#CCOCCOc6ccc7c(c6)C(=O)N(C6CCC(=O)NC6=O)C7=O)nc5)C4)nc3)cc21 (stereo partly shown) [Compound 179, 2-(2,6-dioxopiperidin-3-yl)-5-(2-((3-(5-((1r,3r)-3-((5-(5-methyl-5H-pyrido[4,3-b]indol-7-yl)pyridin-2-yl)oxy)cyclobutoxy)pyridin-2-yl)prop-2-yn-1-yl)oxy)ethoxy)isoindoline-1,3-dione] | – | Degradation activity (tau protein remaining; highest amount of degradation observed at any dosage): A (≤50% tau protein remaining after 72 hours of incubation with the test compound)
Cc1ncoc1-c1ccc([C@H](C)NC(=O)[C@@H]2C[C@@H](O)CN2C(=O)[C@@H](NC(=O)COCCOCCOCC(=O)N2CCN(c3ccn4c(n3)nc3ccccc34)CC2)C(C)(C)C)cc1 [Compound 21, (2S,4R)-1-((S)-14-(4-(benzo[4,5]imidazo[1,2-a]pyrimidin-2-yl)piperazin-1-yl)-2-(tert-butyl)-4,14-dioxo-6,9,12-trioxa-3-azatetadecanoyl)-4-hydroxy-N—((S)-1-(4-(4-methyloxazol-5-yl)phenyl)ethyl)pyrrolidine-2-carboxamide] | – | Activity* (highest amount of degradation observed at any dosage, as tau protein remaining): C (>80% tau protein remaining after 72 hours of incubation with the test compound)
Cn1c2ccncc2c2ccc(-c3ccc(OC4CN(C(=O)C56CC(COCCCCCOc7ccc8c(c7)C(=O)N(C7CCC(=O)NC7=O)C8=O)(C5)C6)C4)nc3)cc21 (stereo not shown) [Compound 175, 2-(2,6-dioxopiperidin-3-yl)-5-((5-((3-(3-((5-(5-methyl-5H-pyrido[4,3-b]indol-7-yl)pyridin-2-yl)oxy)azetidine-1-carbonyl)bicyclo[1.1.1]pentan-1-yl)methoxy)pentyl)oxy)isoindoline-1,3-dione] | – | Degradation activity (tau protein remaining; highest amount of degradation observed at any dosage): C (>80% tau protein remaining after 72 hours of incubation with the test compound)
Cn1c2ccncc2c2ccc(-c3ccc(CCCN4CCN(CCCCCOc5ccc6c(c5)CN(C5CCC(=O)NC5=O)C6=O)CC4)nc3)cc21 (stereo not shown) [Compound 62, 3-(5-((5-(4-(3-(5-(5-methyl-5H-pyrido[4,3-b]indol-7-yl)pyridin-2-yl)propyl)piperazin-1-yl)pentyl)oxy)-1-oxoisoindolin-2-yl)piperidine-2,6-dione] | C (>80% tau protein remaining after 72 hours of incubation with the test compound) | –
Cc1ncsc1-c1ccc([C@H](C)NC(=O)[C@@H]2C[C@@H](O)CN2C(=O)[C@@H](NC(=O)COCCOCCOCCN2CCN(c3ccn4c(n3)nc3ccccc34)CC2)C(C)(C)C)cc1 [Compound 15, (2S,4R)-1-((S)-14-(4-(benzo[4,5]imidazo[1,2-a]pyrimidin-2-yl)piperazin-1-yl)-2-(tert-butyl)-4-oxo-6,9,12-trioxa-3-azatetradecanoyl)-4-hydroxy-N—((S)-1-(4-(4-methylthiazol-5-yl)phenyl)ethyl)pyrrolidine-2-carboxamide] | – | Activity* (highest amount of degradation observed at any dosage, as tau protein remaining): C (>80% tau protein remaining after 72 hours of incubation with the test compound)
O=C1CCC(N2C(=O)c3ccc(OCCOCC#Cc4ccc(O[C@H]5C[C@H](Oc6ccc(-c7ccc8c(c7)[nH]c7ccncc78)cn6)C5)cc4)cc3C2=O)C(=O)N1 (stereo partly shown) [Compound 188, 5-(2-((3-(4-((1r,3r)-3-((5-(5H-pyrido[4,3-b]indol-7-yl)pyridin-2-yl)oxy)cyclobutoxy)phenyl)prop-2-yn-1-yl)oxy)ethoxy)-2-(2,6-dioxopiperidin-3-yl)isoindoline-1,3-dione] | – | Degradation activity (tau protein remaining; highest amount of degradation observed at any dosage): B (≤80% and >50% tau protein remaining after 72 hours of incubation with the test compound)
Cn1c2ccncc2c2ccc(-c3ccc(O[C@H]4C[C@H](OCCCOCCCN5CC(Oc6ccc7c(c6)C(=O)N(C6CCC(=O)NC6=O)C7=O)C5)C4)nc3)cc21 (stereo partly shown) [Compound 99, 2-(2,6-dioxopiperidin-3-yl)-5-((1-(3-(3-((1r,3r)-3-((5-(5-methyl-5H-pyrido[4,3-b]indol-7-yl)pyridin-2-yl)oxy)cyclobutoxy)propoxy)propyl)azetidin-3-yl)oxy)isoindoline-1,3-dione] | A (≤50% tau protein remaining after 72 hours of incubation with the test compound) | –
Cc1ncsc1-c1ccc(CNC(=O)[C@@H]2C[C@@H](O)CN2C(=O)[C@@H](NC(=O)COCCOCCOCCN2CCN(c3ccn4c(n3)nc3ccccc34)CC2)C(C)(C)C)cc1 [Compound 7, (2S,4R)-1-((S)-14-(4-(benzo[4,5]imidazo[1,2-a]pyrimidin-2-yl)piperazin-1-yl)-2-(tert-butyl)-4-oxo-6,9,12-trioxa-3-azatetradecanoyl)-4-hydroxy-N-(4-(4-methylthiazol-5-yl)benzyl)pyrrolidine-2-carboxamide] | – | Activity* (highest amount of degradation observed at any dosage, as tau protein remaining): C (>80% tau protein remaining after 72 hours of incubation with the test compound)
Cc1ncoc1-c1ccc(CNC(=O)[C@@H]2C[C@@H](O)CN2C(=O)[C@@H](NC(=O)COCCOCCOCC(=O)N2CCN(c3ccn4c(n3)nc3ccccc34)CC2)C(C)(C)C)cc1 [Compound 13, (2S,4R)-1-((S)-14-(4-(benzo[4,5]imidazo[1,2-a]pyrimidin-2-yl)piperazin-1-yl)-2-(tert-butyl)-4,14-dioxo-6,9,12-trioxa-3-azatetradecanoyl)-4-hydroxy-N-(4-(4-methyloxazol-5-yl)benzyl)pyrrolidine-2-carboxamide] | – | Activity* (highest amount of degradation observed at any dosage, as tau protein remaining): C (>80% tau protein remaining after 72 hours of incubation with the test compound)
Cn1c2ccncc2c2ccc(-c3ccc(N4CC(OCCCCCOCCCCCOc5ccc6c(c5)C(=O)N(C5CCC(=O)NC5=O)C6=O)C4)nc3)cc21 (stereo not shown) [Compound 115, 2-(2,6-dioxopiperidin-3-yl)-5-((5-((5-((1-(5-(5-methyl-5H-pyrido[4,3-b]indol-7-yl)pyridin-2-yl)azetidin-3-yl)oxy)pentyl)oxy)pentyl)oxy)isoindoline-1,3-dione] | C (>80% tau protein remaining after 72 hours of incubation with the test compound) | –
Cn1c2ccncc2c2ccc(-c3ccc(O[C@H]4C[C@H](OCCOc5ccc(OC6CN(c7ccc8c(c7)C(=O)N(C7CCC(=O)NC7=O)C8=O)C6)nc5)C4)nc3)cc21 (stereo partly shown) [Compound 155, 2-(2,6-dioxopiperidin-3-yl)-5-(3-((5-(2-((1r,3r)-3-((5-(5-methyl-5H-pyrido[4,3-b]indol-7-yl)pyridin-2-yl)oxy)cyclobutoxy)ethoxy)pyridin-2-yl)oxy)azetidin-1-yl)isoindoline-1,3-dione] | C (>80% tau protein remaining after 72 hours of incubation with the test compound) | –
Cn1c2ccncc2c2ccc(-c3ccc(OCCCCCOCCOC(CC4CCN(c5ccc6c(c5)C(=O)N(C5CCC(=O)NC5=O)C6=O)CC4)C(F)(F)F)nc3)cc21 (stereo not shown) [Compound 89, 2-(2,6-dioxopiperidin-3-yl)-5-(4-(3,3,3-trifluoro-2-(2-((5-((5-(5-methyl-5H-pyrido[4,3-b]indol-7-yl)pyridin-2-yl)oxy)pentyl)oxy)ethoxy)propyl)piperidin-1-yl)isoindoline-1,3-dione] | C (>80% tau protein remaining after 72 hours of incubation with the test compound) | –
O=C1CCC(N2C(=O)c3ccc(OCCOCCOCCOCCOCCN4CCC(c5ccc6c(c5)[nH]c5ccncc56)CC4)cc3C2=O)C(=O)N1 (stereo not shown) [Compound 57, 5-((14-(4-(5H-pyrido[4,3-b]indol-7-yl)piperidin-1-yl)-3,6,9,12-tetraoxatetradecyl)oxy)-2-(2,6-dioxopiperidin-3-yl)isoindoline-1,3-dione] | C (>80% tau protein remaining after 72 hours of incubation with the test compound) | –
Cn1c2ccncc2c2ccc(-c3ccc(O[C@H]4C[C@H](Oc5ccc(CCCOC6CN(c7ccc8c(c7)C(=O)N(C7CCC(=O)NC7=O)C8=O)C6)nc5)C4)nc3)cc21 (stereo partly shown) [Compound 156, 2-(2,6-dioxopiperidin-3-yl)-5-(3-(3-(5-((1r,3r)-3-((5-(5-methyl-5H-pyrido[4,3-b]indol-7-yl)pyridin-2-yl)oxy)cyclobutoxy)pyridin-2-yl)propoxy)azetidin-1-yl)isoindoline-1,3-dione] | C (>80% tau protein remaining after 72 hours of incubation with the test compound) | –
Cn1c2ccncc2c2ccc(-c3cnc(OCCOCCOCCOCCOCCOc4ccc5c(c4)C(=O)N(C4CCC(=O)NC4=O)C5=O)c(Cl)c3)cc21 (stereo not shown) [Compound 92, 5-((14-((3-chloro-5-(5-methyl-5H-pyrido[4,3-b]indol-7-yl)pyridin-2-yl)oxy)-3,6,9,12-tetraoxatetradecyl)oxy)-2-(2,6-dioxopiperidin-3-yl)isoindoline-1,3-dione] | A (≤50% tau protein remaining after 72 hours of incubation with the test compound) | –
Cn1c2ccncc2c2ccc(-c3ccc(O[C@H]4C[C@H](OCCCOCCCOC5CN(c6ccc7c(c6)C(=O)N(C6CCC(=O)NC6=O)C7=O)C5)C4)nc3)cc21 (stereo partly shown) [Compound 104, 2-(2,6-dioxopiperidin-3-yl)-5-(3-(3-(3-((1r,3r)-3-((5-(5-methyl-5H-pyrido[4,3-b]indol-7-yl)pyridin-2-yl)oxy)cyclobutoxy)propoxy)propoxy)azetidin-1-yl)isoindoline-1,3-dione] | A (≤50% tau protein remaining after 72 hours of incubation with the test compound) | –

Reference: patent US11458123B2 (Arvinas, Inc., priority 2016, dated 2022)
